From patent publication US20230175072A1, “3 FLAP OKAZAKI FRAGMENTS AND USES THEREOF” (City of Hope, priority 2021, published 2023)
“Also recorded” adds a separate entry of the source. Where two headings read alike, the source gives them in different places.

Assays:
[1] = biological target: T1, Chk1 (Mus musculus, UniProt O35280); experiment: Chk1 inhibition and lung cancer development in FEN1 FFAA mutant mice; type: in vivo; conditions: 0.025 mg/kg intraperitoneal once per week for four weeks from 6 months, lung tumors assessed at 16 months, vs DMSO
T1 construct: from tissue; host or cells: live mice (129S1 background), WT and FEN1 WT/FFAA heterozygotes
T1 sequence (O35280 1-476): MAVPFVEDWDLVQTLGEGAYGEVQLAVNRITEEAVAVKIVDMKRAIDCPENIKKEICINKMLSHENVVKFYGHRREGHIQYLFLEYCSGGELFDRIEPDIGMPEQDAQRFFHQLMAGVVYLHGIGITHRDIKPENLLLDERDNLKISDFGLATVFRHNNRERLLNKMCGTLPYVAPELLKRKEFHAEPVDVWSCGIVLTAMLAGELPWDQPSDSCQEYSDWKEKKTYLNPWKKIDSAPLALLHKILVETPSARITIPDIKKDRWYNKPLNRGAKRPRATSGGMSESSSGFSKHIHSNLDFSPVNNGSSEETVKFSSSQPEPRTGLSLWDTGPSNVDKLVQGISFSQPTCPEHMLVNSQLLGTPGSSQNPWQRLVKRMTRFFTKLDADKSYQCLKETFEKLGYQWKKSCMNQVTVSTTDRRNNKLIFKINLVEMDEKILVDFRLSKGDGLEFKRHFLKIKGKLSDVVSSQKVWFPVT
Description: FEN1 F343A/F344A (FFAA) heterozygous mice (WT/FFAA, 129S1 genetic background), which develop lung adenoma or adenocarcinoma at a high frequency (32), were in-line bred and housed in the Animal Resource Center at City of Hope. All experimental protocols involving animals were approved by the Institutional Animal Care and Use Committee of City of Hope in compliance with the Public Health Service policies of the United States. To determine the extent to which inhibiting Chk1 suppressed cancer development in FEN1 FFAA mutant mice, randomly selected WT or WT/FFAA male or female mice (6 months old) were treated with 0.025 mg/kg body weight SB218078 (Chk1 inhibitor) in DMSO via intraperitoneal injection once per week for four weeks. Untreated control mice were injected with the same volume of DMSO (vehicle). All mice were euthanized at 16 months of age. The presence of lung tumors was determined using anatomic and histopathological analysis in blinding fashion. For whole exome sequencing (WES) studies, WT or FEN1 A159V/WT mice (33) were euthanized at 16 months, and normal lung or lung tumors were dissected for total genomic DNA extraction and purification.
Two-tailed student's t-test was used to determine significance in differences in mutation rate assays and the hypergeometric test was used to determine the significance in the enrichment of a signaling pathway. […]

[2] = test system: yeast cells; experiment: MMS sensitivity spot assay; type: cell-based, Saccharomyces cerevisiae; conditions: YPD plates, 30° C., 48 h
Procedure: FIG. 6. pol3 ITD-bearing rad27Δ revertant mutations or pol3 ITD knock-in of rad27Δ cells partially reverses MMS-induced lethality. Viability of WT, pol3 ITD knock-in, rad27Δ, rad27Δ with the pol3 ITD knock-in mutation, and a rad27Δ revertant carrying a pol3 ITD mutation was analyzed using spot assays. Yeast cells of the indicated genetic backgrounds were serially diluted and spotted on YPD plates containing the indicated level of MMS. The plates were incubated at 30° C. for 48 hours.
To assay the MMS sensitivity of different yeast strains, 0.005%, 0.01%, 0.015% or 0.02% MMS was added to YPD plates after autoclaving, and plates were used the same day. Yeast cells were serially diluted and spotted on YPD plates containing different levels of MMS. The plates were incubated at 30° C. for 48 h.

[3] = test system: yeast cells; conditions: rad27Δ cells; cited from earlier work

| SMILES | spontaneous lung cancer development ([1]; WT mice) | spontaneous lung cancer development ([1]; WT/FFAA (FEN1 F343A/F344A heterozygous) mice, 0.025 mg/kg) | MMS sensitivity of yeast cells ([2]; pol3 ITD cells in a WT RAD27 background, high concentrations of MMS) | MMS sensitivity of yeast cells ([2]; rad27Δ revertant cells and rad27Δ pol3 ITD knock-in mutant cells, higher concentrations (≥0.01%) MMS) | MMS sensitivity of yeast cells ([2]; rad27Δ revertant cells and rad27Δ pol3 ITD knock-in mutant cells, low concentration (0.005%) MMS) | MMS sensitivity of yeast cells [3] |
| --- | --- | --- | --- | --- | --- | --- |
| O=C1NC(=O)c2c1c1c3ccccc3n3c1c1c2c2ccccc2n1C1CCC3O1 [SB218078] | not in WT mice | significantly inhibited spontaneous lung cancer development; also recorded: blocks lung cancer development |  |  |  |  |
| COS(C)(=O)=O [MMS, methyl methanesulfonate] |  |  | sensitive | sensitive | resistant | sensitive |
